# Reference: patent publication US6488164B2, “Compositions including modafinil for treatment of attention deficit hyperactivity disorder and multiple sclerosis fatigue” (Cephalon, Inc., priority 1999, dated 2002)
# Key:
# MS fatigue = details: cited from earlier work
# [1] = system: Fos-IR neurons in VLPO, TMN, cortex; test: Fos immunohistochemistry cell counts in rat brain, modafinil given at noon (Example 2); assay type: in vivo
# Description: (§1) Experimental Design: In the following examples, rats were sacrificed two hours following treatment, and the brains were analyzed using immunohistochemistry for Fos. In Examples 1 and 2, rats were instrumented for electroencephalogram (EEG) and electromyogram (EMG) recordings. To avoid the stress of handling during administration of modafinil or vehicle, chronic catheters were placed in the peritoneal cavity for administration of modafinil or vehicle.
# (§2) Animals and Recording Environment: 65, male, Sprague-Dawley rats (Harlan) weighing 270-330 g were housed individually in a pathogen-free barrier facility in a room maintained at 21.5-22.5° C. with lights on at 7 AM and off at 7 PM. Rats had food and water available ad lib. At least 3 days before each experiment, rats were placed into a light-tight, sound-attenuated recording chamber (Biocube) in an isolated room. Light intensity was 100-150 lux at midlevel inside each cage. The Institutional Animal Care and Use Committees of Beth Israel Deaconess Medical Center and Harvard Medical School approved all procedures.
# (§3) Animal Surgery: Under chloral hydrate anesthesia (350 mg/kg ip), the rats of Examples 1 and 2 were surgically implanted with four EEG screws (AP: +3, −4; RL: +2,−2 from bregma) lightly contacting the dura and two EMG wires (Plastics One, Roanoke, Va.) below the nuchal muscles. The leads were connected to a six channel connector (Plastics One) which was affixed to the skull with dental acrylic. A telemetric temperature transmitter (TA10TA-F40, Data Sciences International, St. Paul, Minn.) was placed in the peritoneal cavity of all but 5 rats. To administer drugs without handling the rats, an 80 cm silastic catheter (1 mm I.D., Baxter Scientific Products) was inserted into the peritoneal cavity, subcutaneously tunneled to the scalp, cemented in place with dental acrylic, and protected externally by a spring. This intraperitoneal catheter was filled with heparinized, pyrogen-free saline and flushed weekly and 3 days prior to the experiment. Animals recovered at least 14 days and then acclimated to recording cables for three days prior to the start of physiological recordings.
# (§4) Drug Administration: Modafinil (lot #PA 008; Cephalon, Inc., West Chester, Pa.) was suspended in a solution of 0.25% methylcellulose (pH=7.4, Dow Chemical Inc., Midland, Mich.) in 0.9% pyrogen-free saline. The drug was administered in a volume of 2.0 ml/kg at doses of 150 mg/kg. Control animals received an equal volume of methylcellulose vehicle. Catheters were then flushed with 1 ml 0.9% saline to assure delivery of drug into the peritoneal cavity. A red flashlight was used to aid injections performed in the dark.
# (§5) Histology and Immunohistochemistry: Two hours following drug injections, animals were deeply anesthetized with chloral hydrate (600 mg/kg ip) and transcardially perfused with 100 ml 0.9% saline followed by 500 ml of phosphate buffered 10% formalin, pH 7.0 (Sigma). Brains were removed, postfixed for 4 hours in formalin, and then allowed to equilibrate in 20% sucrose in 0.1 M phosphate buffered saline (PBS), with 0.02% sodium azide (Sigma) at 4° C. Brains were sectioned (1:5 series, 30 μm) on a freezing microtome and stored in PBS-azide at 4° C. One series from each brain was stained for Fos using previously described methods (Elmquist et al., 1996). […]
# TMN = details: rats, wake-promoting doses; cited from earlier work
# wakefulness [2] = details: rats, cats, canines, non-human primates; also sleep apnea and narcolepsy models; cited from earlier work
# wakefulness [3] = details: cited from earlier work
# [4] = system: Fos-IR neurons in cingulate cortex, TMN, VTA; test: Fos immunohistochemistry cell counts in rat brain, modafinil given at midnight (Example 1); assay type: in vivo; details: rats
# Description: as §1, §2, §3, §4, §5
# [5] = system: TMN of the posterior hypothalamus; details: cats, wake-promoting dose; cited from earlier work
# [6] = rats on normal LD cycle, 150 mg/kg at noon
# [7] = rats, modafinil 150 mg/kg ip at noon, 2 h after treatment, n=7
# [8] = modafinil 150 mg/kg ip at midnight, 2 h after treatment, mean ± standard error, n=6
compound,measurement,setting,value
"NC12CC3CC(CC(C3)C1)C2 [Amantadine, amantadine]",Patients with benefit in MS fatigue,"MS fatigue; double blind, randomized study",79%
NC1=NC(=O)C(c2ccccc2)O1 (stereo not drawn) [pemoline],Beneficial effect in MS fatigue (in words),"MS fatigue; same study, MS patients",failed to show a beneficial effect
"NC(=O)C[S+]([O-])C(c1ccccc1)c1ccccc1 (stereo not drawn) [Modafinil, modafinil]",Number of Fos-IR neurons in the TMN (in words),[1]; [6],markedly increased
same,Number of Fos-IR neurons in the VLPO (in words),[1]; [6],decreases
same,Expression of Fos in frontal and cingulate cortex (in words),"[1]; rats, 150 mg/kg at noon",increased expression of Fos
same,"Fos-IR cell count, TMN",[1]; [7],43 ± 5
same,"Fos-IR cell count, VLPO",[1]; [7],26 ± 3
same,Association of modafinil-induced wakefulness with activation of the TMN (in words),TMN,not associated with activation of the TMN
same,Wakefulness (in words),wakefulness [2],promotes wakefulness
same,Tolerability in clinical trials,"wakefulness [3]; 400 mg/day, humans",well tolerated
same,Optimum wakefulness promoting dose,wakefulness [3]; adult humans,200 mg/day
same,Lower threshold of wake-promoting doses,"wakefulness [3]; human oral, known in the art",about 100 mg/day
same,Fos-IR neurons in TMN relative to controls,[4]; 150 mg/kg at midnight,four times as many
same,Fos immunoreactivity in the cortex versus controls,"[4]; 150 mg/kg at midnight, more pronounced in cingulate and pyriform cortex",more Fos immunoreactivity in the cortex than the controls
same,"Fos-IR cell count, TMN",[4]; [8],46 ± 4
same,"Fos-IR cell count, VTA",[4]; [8],12 ± 3
same,"Fos-IR cell count, cingulate cortex",[4]; [8],191 ± 38
same,Activation of the TMN of the posterior hypothalamus (in words),[5],failed to cause activation of the TMN
